# Reference: patent US8937056B2, “Multikinase inhibitors for use in the treatment of cancer” (Eisai R&D Management Co., Ltd., priority 2007, dated 2015)
# Where two headings read alike, the source gives them in different places.
# What was measured:
# [1] = system: PANC-1 pancreatic cancer cells; assay: PANC-1 cell growth, alone or in combination with SN-38 (CellTiter-Glo)
# Experimental: To determine whether compounds 091 or 106 in combination with SN-38 would enhance the anticancer activity of chemotherapy due to MEKK1 inhibition, PANC-1 human pancreatic cancer cells were examined.
# Antiproliferative effects of SN-38 were evaluated in PANC-1 pancreatic cancer cells in combination with compound 091 or 106. Cultured human cancer cells were placed into 96-well plates and grown in the absence or continuous presence of 0.03-1000 nM SN-38 for 96 h with or without 1 μM of test compound. Cell growth was assessed using CellTiter-Glo® Luminescent Cell Viability Assay (Promega). IC50 values were determined as the concentration of a substance which inhibits cell growth by 50% compared to untreated cell populations.
# [2] = system: Map/Erk kinase (MEK); conditions: cited from earlier work
# [3] = system: human hematologic cancer cell lines; assay: Antiproliferative effects in hematologic cancer cell lines (MTT assay); assay type: cell-based; conditions: cell lines derived from leukemia, or B-cells such non-Hodgkin's lymphoma, 96 h
# Experimental: A study was carried out to investigate anticancer activity of compounds 091 and 106 in a panel of human hematologic cancer cell lines in vitro. Antiproliferative effects of compounds 091 and 106 were evaluated in 7 human cancer cell lines representing several different cancer types of hematologic malignancy. […] Cell growth was assessed using the MTT assay.
# [4] = system: Cell lines which carried a B-RAF V600E mutation; assay: Cell growth inhibition in solid cancer cell lines (CellTiter-Glo or methylene blue); assay type: cell-based; conditions: 96 hours, B-RAF V600E mutated cell lines very sensitive
# Experimental: Compounds 091 and 106, were extensively tested in solid cancer cell lines (shown in FIG. 3 for 18 cell lines for compound 091 and 20 cell lines for compound 106). […] Cell growth was assessed using a CellTiter-Glo® Luminescent Cell Viability Assay (Promega) or a methylene blue assay.
# [5] = target: MEK1 (Homo sapiens, UniProt Q02750); assay: Biochemical MEK1 assay (ELISA, ERK2-coated plate); conditions: 1 μmol/L ATP
# Experimental: A biochemical MEK1 assay was carried out to investigate whether compounds of formula (I) or (II), e.g., compounds 029, 091, 106 and 114 are MEK1 inhibitors. Biochemical MEK1 inhibition of the compounds was assessed using an ELISA assay. All assays were performed in a 96 well format. A plate coated with ERK2, a substrate protein for MEK1 was used for biochemical MEK1 assay. In a final volume of 40 μL, MEK1 (25 ng) was incubated with 50 mmol/L HEPES, 20 mmol/L MgCl2, 4 mmol/L MnCl2, and 0.5 mmol/L Na3VO4 in the absence or presence of the test compounds. The reaction was initiated by the addition of 1 μmol/L ATP. After incubation for 40 minutes at 30° C., the reaction mixture was discarded and the plate was then washed 4 times with 0.05% Tween20/PBS. Each well was incubated with 100 μL of 1:4000 diluted phospho-ERK1/2 monoclonal antibody (Cell Signaling, MA) for 1.5 hours at room temperature. The antibody was then discarded and the plate was washed 6 times with 0.05% Tween20/PBS. Finally, 100 μL of 1:2000 diluted of HRP conjugated anti-mouse IgG antibody (Cell Signaling, MA) was added. After incubation for 90 minutes, this antibody was discarded and the plate was washed 8 times with 0.05% Tween20/PBS. Phosphorylated ERK2 was then visualized by peroxidase reaction, and read at 450 nm. FIG. 2A is a table depicting results from MEK1 assays.
# [6] = system: MV-4-11 AML cells; assay: MV-4-11 cell proliferation assay (CellTiter-Glo); assay type: cell-based, human; conditions: 96 h
# Experimental: A study was carried out to investigate the anticancer activity of compound 106 in a FLT-3 mutated (AML) cell line in vitro. The antiproliferative effects of compound 106 were determined in a cell proliferation assay using MV-4-11 AML cells. […] Luminescence was read on the EnVision 2102 Multilabel Counter (Perkin-Elmer/Wallac, Waltham, Mass.). The software, Graphpad Prism (ver. 4, San Diego, Calif.) was used for determination of IC50 values. The raw value for the untreated control represents an average from 4 wells.
# [7] = system: Colo205 human colon cancer xenografts; assay: In vivo antitumor activity in Colo205 xenografts; set-up: species or system mice; conditions: similar study with a different dosing schedule
# Experimental: A study was carried out to investigate anticancer activity of compounds 091 and 106 in human Colo205 BRAF mutated colon cancer xenografts. The compounds were evaluated against subcutaneous-implanted Colo205 human colon cancer xenografts in female athymic mice.
# (§1) The human colon cancer cell line, Colo205 which has B-RAF (V600E) mutation was transplanted subcutaneously into female nude mice. The experiment consisted of 6 mice per group on the first day of treatment. The compound was administered intravenously for two weekly rounds of five daily injections (q1d×5) with a two-day rest period between the rounds. Compound 091 was administered in a vehicle volume of 0.1 mL/10 g of body weight.
# The general health of the mice was monitored daily. Tumor dimensions and body weights were recorded twice a week starting on the first day of treatment. Tumor weights were calculated using the equation (l×w^2)/2, where 1 and w refer to the larger and smaller dimensions collected at each measurement. When the mean tumor volume reached 140 mm^3, vehicle (cremophor:ethanol:5% glucose; 1:1:8) or the test compound (30 mg/kg) was administered to mice (6/group).
# [8] = system: Flt-3 receptor; assay: Phosphorylation of Flt-3 receptor in MV-4-11 cells (immunoblot); assay type: cell-based, human; conditions: 24 h
# Experimental: A study was carried out to investigate the ability of compound 106 to inhibit phosphorylation of Flt-3 receptor in a FLT3-mutated (AML) cell line in vitro. MV-4-11 human acute myeloid leukemia (AML) cells (Catalog #CRL-9591, ATCC, Rockville, Md.), which carry an activation mutation of Flt-3, were plated into a […] flasks and incubated for 1 day. Then, compound 106 at concentrations of 0.1 nmol/L-300 nmol/L (or culture medium) were added to each flask and cultured for 24 h. The control dish received cultured medium alone. Cells lysates were prepared using ice cold lysis buffer. In order to detect phospho-Flt-3 protein, MV-4-11 cell lysate proteins were subjected to SDS-PAGE under reducing conditions and immunoblotted with an antibody against phospho-Flt-3 antibody (Catalog #3464, Cell Signaling Technology, Danvers, Mass.). Western blots were probed with secondary IRDye antibodies (LI-COR, Inc., Lincoln, Nebr.). Blotted proteins were visualized using the Odyssey infrared imaging system (LI-COR, Inc., Lincoln, Nebr.). Anti-actin antibody (Catalog #sc-8432, Santa Cruz Biotechnologies, Inc., Santa Cruz, Calif.) was used as a loading control.
# [9] = system: LOX human melanoma xenografts; assay: In vivo antitumor activity in LOX xenografts; set-up: species or system mice
# Experimental: A study was carried out to investigate anticancer activity of compounds 091 and 106 in human LOX BRAF mutated melanoma xenografts. The compounds were evaluated against subcutaneous-implanted LOX human melanoma xenografts in female athymic mice.
# as §1, with “human melanoma” for “human colon cancer”, “line, LOX” for “line, Colo205”, “of 8” for “of 6”, “treatment. Compounds were independently” for “treatment. The compound was”, “rounds. Compounds were” for “rounds. Compound 091 was”
# The general health of the mice was monitored daily. Tumor dimensions and body weights were recorded twice a week starting on the first day of treatment. Tumor weights were calculated using the equation (l×w^2)/2, where 1 and w refer to the larger and smaller dimensions collected at each measurement. When the mean tumor volume reached 128 mm^3, vehicle (cremophor:ethanol:5% glucose; 1:1:8) or one of the test compounds (10, 20, 30, or 40 mg/kg) was administered to mice (8/group).
# Sequence of MEK1 (Q02750 whole entry): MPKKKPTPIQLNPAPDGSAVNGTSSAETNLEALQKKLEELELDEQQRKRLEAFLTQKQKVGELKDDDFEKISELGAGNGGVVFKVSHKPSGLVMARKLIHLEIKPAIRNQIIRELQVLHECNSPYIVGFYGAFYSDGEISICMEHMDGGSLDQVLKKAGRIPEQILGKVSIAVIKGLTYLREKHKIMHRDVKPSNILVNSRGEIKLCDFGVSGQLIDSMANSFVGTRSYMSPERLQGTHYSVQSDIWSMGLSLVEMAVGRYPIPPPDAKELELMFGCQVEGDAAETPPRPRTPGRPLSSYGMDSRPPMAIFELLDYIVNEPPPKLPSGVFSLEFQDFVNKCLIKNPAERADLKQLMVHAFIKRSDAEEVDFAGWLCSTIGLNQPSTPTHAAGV
structure (smiles),measurement,setting,value
"CCc1c2c(nc3ccc(O)cc13)-c1cc3c(c(=O)n1C2)COC(=O)[C@]3(O)CC [SN-38, reference compound]",IC50,"[1]; read-out: IC50 for cell growth inhibition in combination setting, SN-38 with 1 μM of compound 091 or compound 106, 96 h",16.2 nM
same,IC50,"[1]; read-out: IC50 for cell growth inhibition, SN-38 alone, 96 h",82.5 nM
COc1cc(O)c2c(c1)/C=C/C[C@H](O)[C@H](O)C(=O)/C=C\C[C@H](C)OC2=O [Compound F152],inhibition of MEK,[2],inhibit
CCNc1cc(O)c2c(c1)/C=C/C[C@H](O)[C@H](O)C(=O)/C=C\[C@@H](C)[C@H](C)OC2=O [Compound 106],sensitivity of cell growth,[3],sensitive
same,"cell growth inhibition, concentration range of sensitivity",[4],low-nM or sub-μM
same,"effect on PANC-1 cancer cell growth, compound alone","[1]; 1 μM alone, separate experiments (data not shown)",did not affect
same,MEK1 inhibitory activity,[5],low nM activity
same,"IC50, antiproliferative activity",[6],low-nmol/L
same,tumor regression from the first day of treatment,[7],70%
same,constitutive phosphorylation of Flt-3 receptor,[8]; 10 nmol/L,completely inhibited
same,protein level of phospho-Flt-3,"[8]; 0.1-300 nmol/L, concentration dependent",decreased
same,mice tumor free at the end of study,[9]; 10 mg/kg,5 out of 8
same,mice tumor free at the end of study,[9]; 20 mg/kg,8 out of 8
same,mice tumor free at the end of study,[9]; 40 mg/kg,8 out of 8
same,anticancer activity,"[9]; three dosages, 10, 20, and 40 mg/kg/dose",statistically significant anticancer activity
